The values that follow come from ChEMBL document CHEMBL1255348, “Susceptibility testing of anidulafungin and voriconazole alone and in combination against conidia and hyphae of Aspergillus spp. under hypoxic conditions” (2008).

What all share (format): functional
Experiment [1] relates to Aspergillus fumigatus. The experiment in a line: Antimicrobial activity against Aspergillus fumigatus conidia isolated from aspergillosis patient after 48 hrs under hypoxic condition by broth microdilution method. For orientation: In broth dilution the organism is exposed to a series of concentrations in liquid medium.
The subject of experiment [2] is Aspergillus terreus. The experiment in a line: Antimicrobial activity against Aspergillus terreus conidia isolated from aspergillosis patient after 48 hrs under hypoxic condition by broth microdilution method.
The subject of experiment [3] is Aspergillus flavus. The experiment in a line: Antimicrobial activity against Aspergillus flavus conidia isolated from aspergillosis patient after 48 hrs under hypoxic condition by broth microdilution method.
In experiment [4] the test system is Aspergillus niger. The experiment in a line: Antimicrobial activity against Aspergillus niger conidia isolated from aspergillosis patient after 48 hrs under hypoxic condition by broth microdilution method.
Experiment [5] has as its system Aspergillus fumigatus. The experiment in a line: Antimicrobial activity against Aspergillus fumigatus conidia isolated from aspergillosis patient after 48 hrs under hypoxic condition by broth microdilution method in presence of voriconazole.
The subject of experiment [6] is Aspergillus terreus. The experiment in a line: Antimicrobial activity against Aspergillus terreus conidia isolated from aspergillosis patient after 48 hrs under hypoxic condition by broth microdilution method in presence of voriconazole.
Experiment [7] relates to Aspergillus flavus. The experiment in a line: Antimicrobial activity against Aspergillus flavus conidia isolated from aspergillosis patient after 48 hrs under hypoxic condition by broth microdilution method in presence of voriconazole.
Experiment [8] deals with Aspergillus niger. The experiment in a line: Antimicrobial activity against Aspergillus niger conidia isolated from aspergillosis patient after 48 hrs under hypoxic condition by broth microdilution method in presence of voriconazole.
The test system of experiment [9] is Aspergillus fumigatus. The experiment in a line: Antimicrobial activity against Aspergillus fumigatus hyphae isolated from aspergillosis patient after 48 hrs under hypoxic condition by broth microdilution method.
Experiment [10] relates to Aspergillus terreus. The experiment in a line: Antimicrobial activity against Aspergillus terreus hyphae isolated from aspergillosis patient after 48 hrs under hypoxic condition by broth microdilution method.
Experiment [11] deals with Aspergillus flavus. In words: Antimicrobial activity against Aspergillus flavus hyphae isolated from aspergillosis patient after 48 hrs under hypoxic condition by broth microdilution method.
The subject of experiment [12] is Aspergillus niger. The experiment in a line: Antimicrobial activity against Aspergillus niger hyphae isolated from aspergillosis patient after 48 hrs under hypoxic condition by broth microdilution method.
In experiment [13] the test system is Aspergillus fumigatus. The experiment in a line: Antimicrobial activity against Aspergillus fumigatus hyphae isolated from aspergillosis patient after 48 hrs under hypoxic condition by broth microdilution method in presence of voriconazole.
Experiment [14] deals with Aspergillus terreus. The experiment in a line: Antimicrobial activity against Aspergillus terreus hyphae isolated from aspergillosis patient after 48 hrs under hypoxic condition by broth microdilution method in presence of voriconazole.
Experiment [15] deals with Aspergillus flavus. The experiment in a line: Antimicrobial activity against Aspergillus flavus hyphae isolated from aspergillosis patient after 48 hrs under hypoxic condition by broth microdilution method in presence of voriconazole.
Experiment [16] concerns Aspergillus niger. The experiment in a line: Antimicrobial activity against Aspergillus niger hyphae isolated from aspergillosis patient after 48 hrs under hypoxic condition by broth microdilution method in presence of voriconazole.

≈ marks a conversion by molar mass, not a printed value. *1 amine or outer side, *2 acyl side, *3 side chain or, on linkers, in order; H or OH if unused. Where a SMILES comes first, the peptide text is derived from it. Bridges are numbered along the chain shown (N, C = ends). [ ]: non-standard residue; d: D form. The star is where a group is joined. pTerphenylCO(4''-OnC5H11) = CCCCCOc1ccc(-c2ccc(-c3ccc(C(=O)*)cc3)cc2)cc1; Orn(4R-OH,5R-OH) = O=C([C@H](C[C@@H](O)[C@@H](O)N[*:3])N[*:1])[*:2]; hTyr(3S-OH,4S-OH) = N[C@H](C(=O)O)[C@H](O)[C@@H](O)c1ccc(O)cc1; Pro(3S-OH,4S-Me) = C[C@H]1CN[C@H](C(=O)O)[C@H]1O; Hyp = O=C(O)[C@@H]1C[C@@H](O)CN1

By MIC is commonly meant the lowest concentration found to suppress growth. A high value points to weaker potency. For `CCCCCOc1ccc(-c2ccc(-c3ccc(C(=O)N[C@H]4C[C@@H](O)[C@@H](O)NC(=O)[C@@H]5[C@@H](O)[C@@H](C)CN5C(=O)[C@H]([C@@H](C)O)NC(=O)[C@H]([C@H](O)[C@@H](O)c5ccc(O)cc5)NC(=O)[C@@H]5C[C@@H](O)CN5C(=O)[C@H]([C@@H](C)O)NC4=O)cc3)cc2)cc1` [ANIDULAFUNGIN] ({pTerphenylCO(4''-OnC5H11)}-[Orn(4R-OH,5R-OH)]T[Hyp][hTyr(3S-OH,4S-OH)]T[Pro(3S-OH,4S-Me)]; lactam 1-C), the minimal inhibitory concentration (MIC) in the experiment with Aspergillus fumigatus [1] turned out to be 0.01 µg/mL (≈ 0.00877 µM); in the experiment with Aspergillus terreus [2] it was 0.01 µg/mL (≈ 0.00877 µM); in the experiment with Aspergillus flavus [3], 0.06 µg/mL (≈ 0.0526 µM); with Aspergillus niger [4], 0.008 µg/mL (≈ 0.00702 µM); against Aspergillus fumigatus [9] it was 0.03 µg/mL (≈ 0.0263 µM); against Aspergillus terreus [10] it was 0.01 µg/mL (≈ 0.00877 µM). Also, the minimum inhibitory concentration (MIC) in the experiment on Aspergillus flavus [11] was 0.03 µg/mL (≈ 0.0263 µM); against Aspergillus niger [12], 0.01 µg/mL (≈ 0.00877 µM). Besides, the “fractional inhibitory concentration index (FICI)” value worked out at 0.7 with Aspergillus fumigatus [5]; 0.9 in the experiment with Aspergillus terreus [6]; 0.7 with Aspergillus flavus [7]; 0.5 in the experiment with Aspergillus niger [8]; 1 in the experiment on Aspergillus fumigatus [13]; 0.8 in the experiment on Aspergillus terreus [14]. In addition, the results for the “fractional inhibitory concentration index (FICI)” value in the experiment with Aspergillus flavus [15] and in the experiment with Aspergillus niger [16] were 1 and 0.7, respectively.
For the compound `C[C@@H](c1ncncc1F)[C@](O)(Cn1cncn1)c1ccc(F)cc1F` [VORICONAZOLE], the minimal inhibitory concentration (MIC) is 0.5 µg/mL (≈ 1.43 µM) in the experiment on Aspergillus fumigatus [1]; 1 µg/mL (≈ 2.86 µM) against Aspergillus terreus [2]; 1 µg/mL (≈ 2.86 µM) with Aspergillus flavus [3]; 1 µg/mL (≈ 2.86 µM) against Aspergillus niger [4]; 1 µg/mL (≈ 2.86 µM) in the experiment with Aspergillus fumigatus [9]; 1 µg/mL (≈ 2.86 µM) in the experiment with Aspergillus terreus [10]. Moreover, the MIC with Aspergillus flavus [11] is 2 µg/mL (≈ 5.73 µM); in the experiment with Aspergillus niger [12], 1 µg/mL (≈ 2.86 µM).
